# Reference: paper PMC12040169 (PLOS Biology, 2025)
# Assay: in vitro
# Settings: human, hela cells, % viability
row,Structure (SMILES),"viability at 28.5 h, 10 µM [%]"
1,O=C(CCCn1ccnc1)N1CCc2[nH]c3ccccc3c2C1 [CBK281872],101
2,COc1ccccc1Cc1cccc(C2CCN(CC(=O)Nc3nccs3)CC2)n1 [CBK286227],95.1
3,Cc1ccn2c(CN3CCCC(Cn4ccnc4C)C3)c(C)nc2c1 (centres unmarked) [CBK281964],86.6
4,O=C(NCCc1c[nH]c2ccccc12)c1cc2c(ccc3ccccc32)oc1=O [CBK264550],91.5
5,CCc1c(C(=O)N(C)Cc2cnn(C(C)C)c2)[nH]c2ccccc12 [CBK307501],92.9
6,O=C(c1cn2cc(-c3cccs3)n(CC3CC3)c(=O)c2n1)N1CCCC1 [CBK306756],92.8
7,CCc1nnc(NS(=O)(=O)c2ccc(NC(=S)Nc3ccc(F)cc3)cc2)s1 [CBK050037],89.7
8,CCOc1ccc(S(=O)(=O)Nc2cnccn2)cc1 [CBK270313],121
9,O=C(Nc1nnc(-c2ccncc2)o1)c1ccc(Cl)cc1Cl [CBK287433],82.3
10,O=C(C1CN(Cc2nc3ccsc3c(=O)[nH]2)c2ccccc2O1)N1CCOCC1 (centres unmarked) [CBK295189],109
11,CCCc1cc(C(=O)N2CCc3sccc3C2C)[nH]n1 (centres unmarked) [CBK283072],101
12,CCCn1c(C)cc2cc(NC(=O)C(C)n3ccnc3)ccc21 (centres unmarked) [CBK281547],85.8
13,CCc1n[nH]c(C2CN(Cc3nc4c(F)cccc4[nH]3)CCO2)n1 (centres unmarked) [CBK304117],90.9
14,Cc1ccc(C)c(C2CCCN2C(=O)C2CN(C(=O)C3CCN(C)CC3)C2)c1 (centres unmarked) [CBK286022],97.5
15,OCCCNc1nccnc1-c1ccc(F)cc1 [CBK037348],109
16,O=c1[nH]c2ncc(-c3cccc4ncccc34)nc2n1CCCO [CBK065060],104
17,COc1ccc(S(=O)(=O)N(C)CC(=O)Nc2cccc(F)c2)cc1Cl [CBK267882],90
18,CN(C)CCN(C)c1cc(-c2cccc(-c3ccccc3)c2)ncn1 [CBK037763],99.4
19,c1ccc2[nH]c(SCCN3CCOCC3)nc2c1 [CBK262593],89
20,Cc1ncsc1CCOc1cc(NC(C)C)ncn1 [CBK115884],84.8
21,O=C(O)c1cccc(-c2ccc(Nc3cccc(NC(=O)c4ccncc4)c3)nc2)c1 [CBK037776],101
22,Cc1ccc(Cc2cnc(NC(=O)NC3CCOCC3)s2)cc1Cl [CBK304440],82.2
23,Cc1ccc2[nH]c(SCC(=O)Nc3ccc(C(=O)O)cc3)nc2c1 [CBK297526],85.7

row,Structure (SMILES),"viability at 28.5 h, 10 µM [%]"
1,O=C(NCC1CCCO1)c1ccc(-n2ccnc2)c(-n2cccc2)c1 (centres unmarked) [CBK285356],98.2
2,C1=CC2N=C(SCc3ccccc3)OC2C=C1 (centres unmarked) [CBK021412],92.6
3,O=C(O)c1ccccc1C(=O)Nc1cccc(-c2noc(-c3cccc(F)c3)n2)c1 [CBK299813],92
4,C[N+]1(c2ccccc2)CCC(N)=N1 (centres unmarked) [CBK262213I],91.8
5,CCOC(=O)CC1C(=O)NCCN1C/C=C\c1ccccc1OC (centres unmarked) [CBK269791],94.3
6,O=C(Nc1cccnc1)c1cc(S(=O)(=O)N2CCCCC2)c(Cl)cc1Cl [CBK264567],91.9
7,O=C(Cn1cnc2ccccc2c1=O)Nc1cccc(-c2cnc3ccccc3n2)c1 [CBK270020],83.7
8,O=C(Nc1nc2c(F)cc(F)cc2s1)c1ccc(F)cc1 [CBK287617],101
9,C=C(C)Cn1c(SC(C)C)nnc1-c1ccccc1OC [CBK200072],97.1
10,CCN1CCN(c2ccc(C(=O)OC)cc2NC(=O)c2ccccc2Cl)CC1 [CBK270267],98.3
11,C=CCSc1nnc(CSc2nc3sc4c(c3c(=O)[nH]2)CCCC4)n1-c1ccccc1 [CBK263341],94.4
12,CC(C)=C(NC(=O)c1ccccc1)C(=O)Nc1cccc(C(=O)O)c1 [CBK058180],105
13,CNS(=O)(=O)c1ccc(NC(=O)Nc2ccc([N+](=O)[O-])cc2OC)cc1 [CBK266939],93.1
14,O=c1oc(-c2cccc(F)c2)nc2cc(Cc3ccc4c(=O)oc(-c5cccc(F)c5)nc4c3)ccc12 [CBK262775],121
15,COc1cc(CNc2cncc(-c3ccc(F)cc3F)n2)cc(OC)c1OC [CBK065826],115
16,CC(=O)N1CCN(C(=O)c2nn(-c3ccc(F)cc3)c3c2CCCCC3)CC1 [CBK295293],107
17,Cc1ccccc1OCC(=O)Nc1ccc(C(=O)O)c(Cl)c1 [CBK287027],83.6
18,O=C(NCC1(O)CCSCC1)c1cc2ccccc2[nH]1 [CBK305199],94.9
19,Cn1c(N2CCC(C(=O)NC3CC3)CC2)nc2ccccc21 [CBK283940],97.9
20,CCOC(=O)C1CCN(C(=O)c2cnn3c(C)c(Cc4cccc(Cl)c4)c(C)nc23)CC1 [CBK160305],92.5
21,Cc1c(C)n(Cc2ccco2)c2ncnc(NC(C)C(=O)O)c12 (centres unmarked) [CBK307561],106
22,CN1Cc2ccccc2-c2ccc(O)cc21 [CBK017804],97.2
23,Cc1cccc(-c2csc3c(=O)[nH]c(N4CCC(C(=O)NCCc5cccnc5)CC4)nc23)c1 [CBK215627],94

row,Structure (SMILES),"viability at 28.5 h, 10 µM [%]"
1,S=C(Nc1cccc(Cl)c1Cl)Nc1nn(Cc2ccc(Cl)c(Cl)c2)cc1Cl [CBK267109],109
2,COc1ccc(OC)c(NC(=O)CSc2nnc(-c3cccnc3)s2)c1 [CBK269043],78.3
3,Cc1nc(NCc2ccc(C(F)(F)F)cc2)nc(N2CCN(C)CC2)n1 [CBK023866],112
4,CN(c1cc(F)ccc1[N+](=O)[O-])S(=O)(=O)c1ccccc1 [CBK001369],97.5
5,CCOc1ccc(CNCCc2ccc(S(N)(=O)=O)cc2)cc1 [CBK268090C],94.6
6,O=C(COc1ccc(Cl)cc1Cl)Nc1ccc2cc[nH]c2c1 [CBK160023],92.5
7,CN1C(=O)c2ccccc2OCCCCC[C@H]2NCCC[C@H]21 [CBK292075],110
8,CSCCCN1C(=O)CN(Cc2ccccc2)C1=O [CBK162363],91.4
9,CC(=O)Nc1cccc(-n2nnnc2SC2CCCCC2=O)c1 (centres unmarked) [CBK304600],95.4
10,O=C(O)/C=C/c1cccc(-c2cn3ccnc3c(N3CCN(c4ccncc4)CC3)n2)c1 [CBK066326],94.8
11,COc1ccccc1-n1nc(-c2ccncc2)nc1C1CCOCC1 [CBK307229],95
12,CCC(C)c1ccc(NC(=O)c2cccnc2)cc1 (centres unmarked) [CBK057967],85.9
13,CC(CN(C)C)C(=O)c1ccsc1 (centres unmarked) [CBK025906],93
14,COc1ccc(-c2c[nH]c3c(=S)[nH]cnc23)cc1 [CBK288462],60.5
15,CC1(C)CN=C(N2CCN(c3c4c(c(C#N)c5nc6ccccc6n35)CCC4)CC2)S1 [CBK263113],103
16,CCc1nnc(SCc2cccc(C(=O)O)c2)o1 [CBK286993],95.7
17,Cc1nc(-c2cccnc2)[nH]c(=O)c1CCC(=O)N1CC2CCC1C2 (centres unmarked) [CBK304198],82.3
18,CSC1CCC(N(C)C(=O)NCCc2cn3cccc(C)c3n2)C1 (centres unmarked) [CBK305324],84.5
19,O=C1Nc2cc(C(F)(F)F)ccc2N2CCCC12 (centres unmarked) [CBK288125],99.7
20,COC(=O)COc1ccc(C2Nc3c(Cl)ccc(C(=O)O)c3C3C=CCC32)cc1 (centres unmarked) [CBK268961],99.9
21,COCCNc1nc(-c2ccccc2OC)ccc1C(=O)N1CCN(C)CC1 [CBK105950],88.7
22,CC(C)C(=O)Nc1sc2c(c1C(=O)NCc1cccnc1)CCC2 [CBK306144],80.3
23,CC(=O)Nc1cccc(-c2cncc(NCCc3ccccn3)n2)c1 [CBK065359],103

row,Structure (SMILES),"viability at 28.5 h, 10 µM [%]"
1,O=C1CC(c2ccc(Cl)cc2)CC(=O)C1=CNCCN1CCN(C(=O)Nc2ccccc2)CC1 (centres unmarked) [CBK263671],95.3
2,COc1cccc(NC(=O)CN2CCC(NC(=O)c3cccs3)CC2)c1 [CBK305800],96.3
3,Cc1ccc(Cl)c(NC(=O)NCCN2CCN(c3ccccc3[N+](=O)[O-])CC2)c1 [CBK267293],94.5
4,O=S(=O)(NC1CCN(Cc2ccccc2)CC1)c1cccc2nonc12 [CBK062030],94.6
5,Cc1ccc(N(CC(=O)Nc2ccccc2C(N)=O)S(=O)(=O)c2ccccc2)cc1C [CBK265246],94.4
6,Cc1cccc(C(=O)Nc2ccc(C(=O)NNC(=O)C(C)(C)C)cc2)c1 [CBK269073],111
7,CC(C)Oc1ccc(C2CC(=O)N(c3cccc(C(=O)O)c3)C2=O)cc1 (centres unmarked) [CBK291181],89.8
8,O=C(NC(C(=O)N/N=C/c1coc2ccccc2c1=O)c1n[nH]c(=O)c2ccccc12)c1ccccc1 (centres unmarked) [CBK262847],95.3
9,CCn1cc(C(=O)O)c(=O)c2cnc(N3CCN(C(=S)Nc4ccc5c(c4)OCCO5)CC3)nc21 [CBK267895],95.8
10,CCn1c(C)nc2cc(NC(=O)Cn3cnc4ccccc43)ccc21 [CBK281832],94.1
11,CC(C)(C)COC(=O)N1CCC2(CC1)CC(=O)N(Cc1ccc(S(C)(=O)=O)cc1)C2=O [CBK155949],91.4
12,O=C(Nc1sccc1C(=O)N1CCOCC1)C(Sc1ccccc1)c1ccccc1 (centres unmarked) [CBK268165],95
13,Nc1nc(OCCN2CCCC2=O)cnc1-c1cc(Cl)cc(Cl)c1 [CBK145199],89.3
14,COc1ccc(-c2noc(CNC(=O)Nc3ccc(F)cc3)n2)cc1OC [CBK269784],97.2
15,O=C(c1c(F)cccc1F)N1CCC(O)(c2ccccn2)CC1 [CBK283670],105
16,Cc1ccc2nc(-c3ccccc3)cc(C(=O)NCCCn3ccnc3)c2c1 [CBK268526],96.1
17,Cc1ccc2nc(COC(=O)c3ccc(Cn4nnc5ccccc54)cc3)cn2c1 [CBK297923],96.6
18,Cc1noc(C)c1NC(=O)c1cnccn1 [CBK200390],89.9
19,Cc1nc(=O)c(-c2ccccc2)c(C)n1CCc1c[nH]cn1 [CBK287900],89.3
20,CCC(CCC(=O)Nc1ccccc1Cl)C(=O)O (centres unmarked) [CBK286767],86.8
